Results from the NIST ThermoML archive (doi:10.1016/j.fluid.2005.09.019).

Assay: wn = mass fraction of the nth substance listed
Conditions: Fluid (supercritical or subcritical phases), Other PVT measurement

CCCCCCCCOC(=O)c1ccccc1-c1ccccc1C(=O)OCCCCCCCC [dioctyl [1,1'-biphenyl]-2,2'-dicarboxylate] + O=C=O
Conditions	mass density [kg/m3]
294.15 K, 29730 kPa, w1 = 0.55	926
294.75 K, 7070 kPa, w1 = 0.019	786
294.95 K, 61930 kPa, w1 = 0.374	942
296.95 K, 55900 kPa, w1 = 0.374	931
297.05 K, 11550 kPa, w1 = 0.628	870
298.55 K, 27860 kPa, w1 = 0.55	917
299.45 K, 9000 kPa, w1 = 0.019	784
301.15 K, 12660 kPa, w1 = 0.628	862
303.75 K, 60200 kPa, w1 = 0.274	984
308.05 K, 69130 kPa, w1 = 0.094	953
311.55 K, 50510 kPa, w1 = 0.274	965
312.35 K, 42450 kPa, w1 = 0.374	882
313.45 K, 26760 kPa, w1 = 0.55	896
316.95 K, 53240 kPa, w1 = 0.094	911
317.25 K, 14760 kPa, w1 = 0.019	750
318.45 K, 16170 kPa, w1 = 0.628	848
319.45 K, 53170 kPa, w1 = 0.171	1122
320.25 K, 44070 kPa, w1 = 0.069	922
322.45 K, 27040 kPa, w1 = 0.55	895
322.55 K, 49720 kPa, w1 = 0.206	1098
323.45 K, 44620 kPa, w1 = 0.274	934
324.25 K, 48000 kPa, w1 = 0.094	883
327.05 K, 41620 kPa, w1 = 0.069	899
329.65 K, 48240 kPa, w1 = 0.171	1085
330.85 K, 28520 kPa, w1 = 0.55	882
331.25 K, 47070 kPa, w1 = 0.206	1071
334.65 K, 19620 kPa, w1 = 0.628	838
334.65 K, 39730 kPa, w1 = 0.374	852
334.85 K, 19620 kPa, w1 = 0.019	716
337.75 K, 42720 kPa, w1 = 0.274	903
339.35 K, 44380 kPa, w1 = 0.094	845
340.95 K, 45450 kPa, w1 = 0.206	1040
340.95 K, 46170 kPa, w1 = 0.171	1048
342.45 K, 40210 kPa, w1 = 0.374	857
342.75 K, 39580 kPa, w1 = 0.069	852
351.75 K, 44960 kPa, w1 = 0.206	1005
352.95 K, 42930 kPa, w1 = 0.274	879
353.55 K, 23520 kPa, w1 = 0.628	828
353.85 K, 32040 kPa, w1 = 0.55	866
353.95 K, 45690 kPa, w1 = 0.171	1013
354.35 K, 43820 kPa, w1 = 0.094	811
355.95 K, 41140 kPa, w1 = 0.374	830
356.55 K, 40450 kPa, w1 = 0.069	821
359.75 K, 25240 kPa, w1 = 0.019	671
359.75 K, 45100 kPa, w1 = 0.206	994
367.25 K, 43820 kPa, w1 = 0.274	849
369.25 K, 46200 kPa, w1 = 0.171	970
369.85 K, 45410 kPa, w1 = 0.206	955
370.25 K, 44510 kPa, w1 = 0.094	779
371.05 K, 26730 kPa, w1 = 0.628	821
371.45 K, 42590 kPa, w1 = 0.374	816
371.55 K, 41450 kPa, w1 = 0.069	788
371.85 K, 34480 kPa, w1 = 0.55	851
375.95 K, 27720 kPa, w1 = 0.019	638
